{
  "source": "patent US11179384B2",
  "about": "“Treatment of nonalcoholic fatty liver disease” (TAKEDA GMBH, priority 2016, dated 2021)",
  "assay_type_in_all_cases": "in vivo",
  "key": {"[1]": {"system": "tissue inhibitor of metalloproteases-1 (TIMP-1) gene expression", "assay": "Hepatic gene expression in prophylactic NASH mouse model, TIMP-1 (Taqman PCR)", "conditions": "LDLR-KO mice on mCDAA diet; 1, 3 and 10 mg/kg p.o. QD for 7 weeks; liver mRNA", "method": "Homozygous low-density lipoprotein receptor knockout (LDLR-KO) mice were fed with chow or modified choline deficient, L-amino acid-defined (mCDAA) diet (A08111307, Research Diets, USA). After 1 week under chow or mCDAA diet, the mice were orally dosed with Compound A (1, 3 and 10 mg/5 ml/kg, QD, n=10; suspension in 0.5 w/v % methylcellulose suspension) for 7 weeks.\nIn addition prophylactic effects of Compound A on hepatic gene expression were evaluated. After total RNA was extracted from liver, cDNA was amplified using High-Capacity cDNA Reverse Transcription Kit (ABI 4368813), and target gene mRNA was measured using Taqman PCR. The target gene expression level was normalized by GAPDH."}, "Homozygous LDLR-KO mice": {"system": "Homozygous LDLR-KO mice", "assay": "Therapeutic effects in a mouse model of NASH (LDLR-KO mice, mCDAA diet, after fibrosis formation)", "conditions": "6 weeks mCDAA diet then 4 and 8 mg/kg p.o. QD for 10 weeks (therapeutic)", "method": "To evaluate therapeutic potential of Compound A, effects of Compound A were additionally examined after hepatic fibrosis formation. Homozygous LDLR-KO mice were fed with chow or mCDAA diet (A08111307, Research Diets, USA). After 6 week under chow or mCDAA diet, the mice were orally dosed with Compound A (4, and 8 mg/5 mL/kg, QD, n=12; suspension in 0.5 w/v % methylcellulose solution) for 10 weeks."}, "ob/ob mice": {"system": "ob/ob mice", "assay": "Insulin tolerance test (insulin sensitivity) in ob/ob mice", "conditions": "29 days", "method": "Male 5 weeks old ob/ob mice (B6.Cg-Lep^ob/J, genotype: Lep^ob/Leb^ob) and age-matched male lean mice (B6.Cg-Lep^ob/J, genotype: Lep^ob/+ * or Leb^+/+) were purchased from Charles River Laboratories, Japan Inc. All mice were fed with a normal chow (CE-2, CLEA Japan) and allowed free access to tap water. The animals were housed in a room with controlled temperature (23±1° C.), humidity (55±10%) and lightning (lights from 07:00 to 19:00). All experiments were approved by the Institutional Animal Care and Use Committee of Shonan Research Center, Takeda Pharmaceutical Company ltd (Japan).\nAll mice were housed individually in animal cages and used for the study at 7 weeks of age after 2 weeks of acclimation period. Blood samples were collected from the tail vein. Heparin and 2%-EDTA were used to inhibit the coagulation of the blood. Plasma was obtained by centrifugation. Plasma levels of glucose were measured using the automatic analyzer 7180 (Hitachi, Japan). Vehicle (0.5 w/v % methylcellulose, 10 ml/kg) and Compound A (3 and 10 mg/kg suspended in 0.5% methylcellulose solution) were orally administered once daily. After 28 days of administration, the insulin tolerance test (ITT) was performed. Mice were fasted for 6 h and then intraperitoneally administered with insulin (Novolin R, NovoNordisk) at a dose of 0.5 unit/5 ml/kg. Blood samples were collected from tail vein before and 15, 30, 60 and 120 min after the insulin administration. Plasma glucose (PG) level and ITT were measured using the method described above. […] AUC0-120 min of plasma glucose level was calculated using the following formula; [{(0 min PG)+(15 min PG)}×15+{(15 min PG)+(30 min PG)}×15+{(30 min PG)+(60 min PG)}×30+{(60 min PG)+[…]}×60]/2.\nData are expressed as mean and standard deviation (n=8 for ob/ob mice and n=5 for lean mice). The dose response trends of Compound A were assessed by one-tailed Williams' test or Shirley-Williams test. […] For evaluation of the effects of pioglitazone, statistical differences between vehicle and pioglitazone treated groups were analyzed with Student's t-test or Aspin-Welsh test. […]"}, "[2]": {"system": "male C57BL/6J mice (high caloric diet)", "assay": "Liver lipidosis / liver weight, 8 weeks treatment in diet induced obese (DIO) mice", "conditions": "for Liver weight (Day 56) / Grade Liver Lipidosis (mean): high caloric diet; for Liver weight (Day 56): vehicle HD 1.04, SD 0.96; for Grade Liver Lipidosis (mean): day 56, grades 1 minimal to 4 marked, vehicle HD 1.5", "text": "Obesity was induced in male C57BL/6J mice (Charles River, Germany; 6 weeks of age weighing 19-20 g at start of study) by feeding a high caloric diet (60% kcal % fat; No. 2127; Provimi-Kliba, Switzerland)) for 7 weeks. Animals were single housed in Makrolon cages type II-Long with free access to food and tap water. When body weight gain exceeded 50% compared to body weight at onset of diet, the animals were randomized according to body weight (day −4) followed by treatment for 8 weeks with daily doses of Compound A (0.3, 1, 3 and 10 mg/kg/day, p.o; dissolved in 4% (w/v) aqueous methocel solution to give the required dose in a volume of 10 mL/kg body weight; n=10 in each group). After 8 weeks of treatment, animals were sacrificed. Liver was removed, weighed and fixed in 4% neutral buffered formalin for 2 days, embedded in paraffine and stained with Hematoxylin-Eosin for histological evaluation. The slides were blinded for histological reading and liver lipidosis was evaluated by light microscopy.\nThe degree of liver lipidosis was assessed semi-quantitatively by the following grading criteria:\nGrade 1 (minimal): small round cytoplasmic vacuoles within hepatocytes\nGrade 2 (mild): small to medium sized round cytoplasmic vacuoles within hepatocytes\nGrade 3 (moderate): in addition: round cytoplasmic vacuoles, partly forcing the nucleus to the periphery of the cell\nGrade 4 (marked): in addition: whole lobe affected\nFor focal changes or multifocal changes 0.5 or 0.25 were subtracted respectively. The mean severity index was calculated by dividing the sum of all gradings/group by the number of animals/group."}, "[3]": {"conditions": "3 and 10 mg/kg p.o. daily, 8 weeks"}},
  "data": [
    {"smiles": "CCOc1cc2c(cc1OC)C(c1ccc(=O)n(C)c1)=N[C@@H]1CC[C@@H](O)C[C@H]21", "note": "[Compound A, 5-((2R,4aR,10bR)-9-Ethoxy-2-hydroxy-8-methoxy-1,2,3,4,4a,10b-hexahydro-phenanthridin-6-yl)-1-methyl-1H-pyridin-2-one]", "values": [
      {"measurement": "hepatic TIMP-1 gene expression (normalized by GAPDH)", "setting": "[1]", "value": "dose-dependent reduction"},
      {"measurement": "hepatic TG content", "setting": "Homozygous LDLR-KO mice", "value": "significantly reduced from the initial value"},
      {"measurement": "hepatic fibrosis area", "setting": "Homozygous LDLR-KO mice", "value": "reduction"},
      {"measurement": "insulin-stimulated plasma glucose (PG) reduction at 60 min", "setting": "ob/ob mice; 10 mg/kg/day p.o., ITT insulin 0.5 unit/kg i.p., vs vehicle", "value": "significantly enhanced"},
      {"measurement": "AUC of PG level (AUC0-120 min)", "setting": "ob/ob mice; 3 and 10 mg/kg/day p.o., ITT, statistical significance at 10 mg/kg/day", "value": "dose-dependently decreased"},
      {"measurement": "declines in plasma glucose level at 60 min from the zero time value", "setting": "ob/ob mice; 3 and 10 mg/kg/day p.o., ITT, vs vehicle", "value": "significantly greater"},
      {"measurement": "increase in liver weight caused by high caloric diet", "setting": "[2]; [3]", "value": "completely abolished"},
      {"measurement": "liver lipidosis", "setting": "[2]; [3]", "value": "almost abolished"},
      {"measurement": "Liver weight (Day 56)", "setting": "[2]; 0.3 mg/kg p.o. daily, 8 weeks", "value": 1.08, "unit": "g"},
      {"measurement": "Grade Liver Lipidosis (mean)", "setting": "[2]; 0.3 mg/kg p.o.", "value": 1.4},
      {"measurement": "Liver weight (Day 56)", "setting": "[2]; 1.0 mg/kg p.o. daily, 8 weeks", "value": 1.01, "unit": "g"},
      {"measurement": "Grade Liver Lipidosis (mean)", "setting": "[2]; 1.0 mg/kg p.o.", "value": 0.6},
      {"measurement": "Liver weight (Day 56)", "setting": "[2]; 3.0 mg/kg p.o. daily, 8 weeks", "value": 0.96, "unit": "g"},
      {"measurement": "Grade Liver Lipidosis (mean)", "setting": "[2]; 3.0 mg/kg p.o.", "value": 0.3},
      {"measurement": "Liver weight (Day 56)", "setting": "[2]; 10 mg/kg p.o. daily, 8 weeks", "value": 0.95, "unit": "g"},
      {"measurement": "Grade Liver Lipidosis (mean)", "setting": "[2]; 10.0 mg/kg p.o.", "value": 0.2}
    ]}
  ]
}
